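Cultured in 96-well plates, cells were exposed to test compound for 48 hours across five concentrations. GI50 is the concentration that inhibits growth by half.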 Active and inactive are the calls of the source. Cut-off read from the data, not from the text of the source: active = GI50 up to about 1.1 µM and inactive = higher.
Tests used:
Test in all cases: NCI-60 cell line screen, 48 h
SK-MEL-2 = test system: SK-MEL-2
RXF 393 = test system: RXF 393
BT-549 = test system: BT-549
K562 = test system: K562
SW-620 = test system: SW-620
Malme-3M = test system: Malme-3M
M14 = test system: M14
MDA-N = test system: MDA-N
OVCAR-8 = test system: OVCAR-8
NCI-H23 = test system: NCI-H23
SK-MEL-5 = test system: SK-MEL-5
ACHN = test system: ACHN
HT-29 = test system: HT-29
OVCAR-5 = test system: OVCAR-5
MOLT-4 = test system: MOLT-4
HCT-15 = test system: HCT-15
HOP-92 = test system: HOP-92
EKVX = test system: EKVX
SF-539 = test system: SF-539
PC-3 = test system: PC-3

SMILES	GI50 (SK-MEL-2)	GI50 (RXF 393)	GI50 (BT-549)	GI50 (K562)	GI50 (SW-620)	GI50 (Malme-3M)	GI50 (M14)	GI50 (MDA-N)	GI50 (OVCAR-8)	GI50 (NCI-H23)	GI50 (SK-MEL-5)	GI50 (ACHN)	GI50 (HT-29)	GI50 (OVCAR-5)	GI50 (MOLT-4)	GI50 (HCT-15) [µM]	GI50 (HOP-92)	GI50 (EKVX)	GI50 (SF-539)	GI50 (PC-3)
S=C(N/N=C(\c1ccccc1)c1ccccn1)NC1CCCCC1	> 94.6 µM (inactive)	> 100 µM (inactive)	23.4 µM (inactive)	0.5 µM (active)	1.19 µM (inactive)	1.32 µM (inactive)	1.16 µM (inactive)	78.7 µM (inactive)	0.34 µM (active)	1.6 µM (inactive)	13.1 µM (inactive)	0.571 µM (active)	0.274 µM (active)	> 88.1 µM (inactive)	0.54 µM (active)	1.02	> 100 µM (inactive)	1.4 µM (inactive)	3.08 µM (inactive)	1.4 µM (inactive)
CCCCCCCCCCCCCC(=O)OC(/C=C/C(C)C)C(O)C(O)C(OC)C(=O)NC1CCCCNC1=O (stereo not given)	2.65 µM (inactive)	0.789 µM (active)	> 10 µM (inactive)	0.627 µM (active)	0.372 µM (active)	2.02 µM (inactive)	0.655 µM (active)	9.04 µM (inactive)	1.02 µM (active)	1.2 µM (inactive)	1.9 µM (inactive)	0.689 µM (active)	0.927 µM (active)	3.65 µM (inactive)	0.57 µM (active)	1.43	1.17 µM (inactive)	3.82 µM (inactive)	1.38 µM (inactive)	> 10 µM (inactive)
COc1ccc(-c2cc(-c3cc(F)c(Cl)cc3Cl)[nH]n2)cc1OC	79.6 µM (inactive)	15.1 µM (inactive)	30.2 µM (inactive)	46 µM (inactive)	29.6 µM (inactive)	30.4 µM (inactive)	75 µM (inactive)	52.8 µM (inactive)	34.4 µM (inactive)	30 µM (inactive)	17.1 µM (inactive)	7.76 µM (inactive)	22.1 µM (inactive)	> 100 µM (inactive)	14.5 µM (inactive)	21.2	20.6 µM (inactive)	22.2 µM (inactive)	15.9 µM (inactive)	21.2 µM (inactive)
CC(=O)OCC1C(=O)OCC1C(=O)N1Cc2cc3ccccc3nc2C1 (stereo not given)	8.15 µM (inactive)	1.17 µM (inactive)	2.17 µM (inactive)	0.676 µM (active)	0.469 µM (active)	1.46 µM (inactive)	1.56 µM (inactive)	2.75 µM (inactive)	3.2 µM (inactive)	3.39 µM (inactive)	10.2 µM (inactive)	1.36 µM (inactive)	2.78 µM (inactive)	5.69 µM (inactive)	1.44 µM (inactive)	1.95	1.24 µM (inactive)	8.05 µM (inactive)	6 µM (inactive)	7.45 µM (inactive)
O=c1[nH]c2cc([N+](=O)[O-])c(N/N=C/c3ccc(Cl)cc3Cl)c([N+](=O)[O-])c2[nH]1	> 100 µM (inactive)	18.2 µM (inactive)	> 100 µM (inactive)	43.6 µM (inactive)	26.7 µM (inactive)	31.2 µM (inactive)	> 100 µM (inactive)	7.48 µM (inactive)	20 µM (inactive)	71.3 µM (inactive)	> 100 µM (inactive)	39.8 µM (inactive)	> 100 µM (inactive)	70 µM (inactive)	32.9 µM (inactive)	40.3	32.9 µM (inactive)	> 100 µM (inactive)	> 100 µM (inactive)	> 100 µM (inactive)
O=C(N1CCN(c2ccccc2)CC1)N(C(=O)C1(c2ccc(Cl)cc2)CCCC1)S(=O)(=O)c1ccccc1	19.9 µM (inactive)	42.2 µM (inactive)	27.8 µM (inactive)	32.4 µM (inactive)	32 µM (inactive)	26.4 µM (inactive)	21.1 µM (inactive)	22.1 µM (inactive)	33 µM (inactive)	26.7 µM (inactive)	19.9 µM (inactive)	14 µM (inactive)	27.9 µM (inactive)	24.8 µM (inactive)	23.3 µM (inactive)	25.1	32.8 µM (inactive)	21.1 µM (inactive)	22.1 µM (inactive)	26.6 µM (inactive)
CC(C)(C)c1cc2c(OC/C=C/c3ccccc3)c(c1)Cc1cc(C(C#N)(OC/C=C/c3ccccc3)OC/C=C/c3ccccc3)cc(c1OC/C=C\c1ccccc1)Cc1cc(C(C)(C)C)cc(c1OC/C=C/c1ccccc1)Cc1cc(C(C#N)(OC/C=C\c3ccccc3)OC/C=C/c3ccccc3)cc(c1OC/C=C\c1ccccc1)C2 (stereo not given)	> 100 µM (inactive)	> 100 µM (inactive)	> 100 µM (inactive)	> 100 µM (inactive)	> 100 µM (inactive)	83.4 µM (inactive)	36.6 µM (inactive)	> 100 µM (inactive)	> 100 µM (inactive)	> 100 µM (inactive)	> 100 µM (inactive)	> 100 µM (inactive)	> 100 µM (inactive)	> 100 µM (inactive)	> 100 µM (inactive)	> 100	95.5 µM (inactive)	> 100 µM (inactive)	> 100 µM (inactive)	> 100 µM (inactive)
CC(C)(C)OC(=O)N1C(OP(=O)(Oc2ccccc2)Oc2ccccc2)=COc2cccnc21	22.3 µM (inactive)	91.8 µM (inactive)	63.7 µM (inactive)	44.9 µM (inactive)	38.9 µM (inactive)	30.6 µM (inactive)	37.1 µM (inactive)	36.3 µM (inactive)	43.2 µM (inactive)	45.5 µM (inactive)	18.4 µM (inactive)	29.9 µM (inactive)	82.6 µM (inactive)	> 100 µM (inactive)	17.7 µM (inactive)	48.8	26.1 µM (inactive)	60.7 µM (inactive)	> 100 µM (inactive)	84.5 µM (inactive)
OC(CC(O)(C(F)(F)Cl)C(F)(F)Cl)c1ccccc1 (stereo not given)	> 10 µM (inactive)	> 10 µM (inactive)	> 10 µM (inactive)	> 10 µM (inactive)	> 10 µM (inactive)	> 10 µM (inactive)	< 0.001 µM (active)	> 10 µM (inactive)	> 10 µM (inactive)	> 10 µM (inactive)	0.00809 µM (active)	> 10 µM (inactive)	> 10 µM (inactive)	> 10 µM (inactive)	> 10 µM (inactive)	> 10	> 10 µM (inactive)	> 10 µM (inactive)	> 10 µM (inactive)	> 10 µM (inactive)
Cc1cccc(CC(Cc2ccc(C)cc2C(=O)O)C(=O)O)c1 (stereo not given)	> 100 µM (inactive)	> 100 µM (inactive)	> 100 µM (inactive)	> 100 µM (inactive)	> 100 µM (inactive)	> 100 µM (inactive)	> 100 µM (inactive)	> 100 µM (inactive)	> 100 µM (inactive)	> 100 µM (inactive)	> 100 µM (inactive)	> 100 µM (inactive)	> 100 µM (inactive)	> 100 µM (inactive)	> 100 µM (inactive)	> 100	> 100 µM (inactive)	> 100 µM (inactive)	> 100 µM (inactive)	> 100 µM (inactive)
Cc1cc(C)nc(NS(=O)(=O)c2ccc(NNC(=O)c3cccc4c(NNc5ccc(S(=O)(=O)Nc6nc(C)cc(C)n6)cc5)c5ccccc5nc34)cc2)n1	23.6 µM (inactive)	20.8 µM (inactive)	24.7 µM (inactive)	22.2 µM (inactive)	22.1 µM (inactive)	20.7 µM (inactive)	17.5 µM (inactive)	20.9 µM (inactive)	20.6 µM (inactive)	22.8 µM (inactive)	16.9 µM (inactive)	17.3 µM (inactive)	21.8 µM (inactive)	20.1 µM (inactive)	26 µM (inactive)	19.7	17.8 µM (inactive)	18.7 µM (inactive)	20.3 µM (inactive)	24.3 µM (inactive)
CC(C)=CCC(O)[C@](C)(O)[C@H]1[C@H](O)C[C@@]2(C)[C@@H]3CCc4cc(O)c(OC5OC(CO)C(O)C(O)C5O)cc4C3(C)C(=O)C[C@]12C (stereo not given in full)	> 100 µM (inactive)	> 100 µM (inactive)	> 100 µM (inactive)	> 100 µM (inactive)	> 100 µM (inactive)	> 100 µM (inactive)	> 100 µM (inactive)	> 100 µM (inactive)	> 100 µM (inactive)	> 100 µM (inactive)	> 100 µM (inactive)	> 100 µM (inactive)	> 100 µM (inactive)	> 100 µM (inactive)	> 100 µM (inactive)	> 100	> 100 µM (inactive)	> 100 µM (inactive)	> 100 µM (inactive)	> 100 µM (inactive)

From ChEMBL document CHEMBL1201862, “PubChem BioAssay data set” (2004)
